Measurements published in ChEMBL document CHEMBL1124355, “Synthesis and biological activity of some partially modified retro-inverso analogues of cholecystokinin” (J Med Chem, 1989).
Non-standard residues stand in square brackets, D forms with d. Residues, ends and D or L forms follow the SMILES beside them. *: point of attachment. sY = N[C@@H](Cc1ccc(OS(=O)(=O)O)cc1)C(=O)O; Nle = CCCC[C@H](N)C(=O)O; Boc = CC(C)(C)OC(=O)*

How the values were obtained:
Rattus norvegicus = species: Rattus norvegicus; experiment: Ability of compound to stimulate in vitro amylase release from rat pancreatic acini; type: functional
Cholecystokinin receptor = molecular target: T1, Cholecystokinin receptor (Rattus norvegicus, UniProt P30551+P30553); experiment: Ability of compound to Inhibit the binding of [125I]BH-CCK-8 to Cholecystokinin receptor in isolated rat pancreatic acini; type: protein assay
T1 sequence (P30551 whole entry): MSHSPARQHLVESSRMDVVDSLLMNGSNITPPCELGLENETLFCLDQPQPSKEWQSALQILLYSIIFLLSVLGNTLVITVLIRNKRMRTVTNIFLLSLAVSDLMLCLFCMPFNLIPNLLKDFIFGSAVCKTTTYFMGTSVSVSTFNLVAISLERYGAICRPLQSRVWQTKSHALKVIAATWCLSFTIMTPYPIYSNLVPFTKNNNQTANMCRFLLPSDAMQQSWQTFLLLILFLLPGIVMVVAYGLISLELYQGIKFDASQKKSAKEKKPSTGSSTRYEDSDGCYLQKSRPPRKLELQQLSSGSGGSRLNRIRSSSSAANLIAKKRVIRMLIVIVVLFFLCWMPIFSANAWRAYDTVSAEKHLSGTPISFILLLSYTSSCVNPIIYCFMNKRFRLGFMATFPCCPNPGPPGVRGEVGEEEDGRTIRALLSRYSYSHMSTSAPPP
T1 sequence (P30553 whole entry): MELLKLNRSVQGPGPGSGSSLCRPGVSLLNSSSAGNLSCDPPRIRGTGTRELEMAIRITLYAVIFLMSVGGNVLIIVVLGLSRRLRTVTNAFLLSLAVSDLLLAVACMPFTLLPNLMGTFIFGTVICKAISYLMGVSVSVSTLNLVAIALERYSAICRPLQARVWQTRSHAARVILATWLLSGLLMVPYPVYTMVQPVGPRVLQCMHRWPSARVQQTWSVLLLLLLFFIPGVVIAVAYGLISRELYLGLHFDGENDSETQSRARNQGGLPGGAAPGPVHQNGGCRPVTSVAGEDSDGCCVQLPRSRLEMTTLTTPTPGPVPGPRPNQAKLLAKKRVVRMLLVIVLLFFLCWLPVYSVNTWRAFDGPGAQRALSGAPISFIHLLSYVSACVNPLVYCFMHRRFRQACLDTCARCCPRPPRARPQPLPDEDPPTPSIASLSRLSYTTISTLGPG

[1] = Ability of compound to Inhibit the binding of [125I]BH-CCK-8 to Cholecystokinin receptor in isolated guinea pig brain membranes

Structure (SMILES)	EC50 (Rattus norvegicus)	IC50 (Cholecystokinin receptor)	IC50 [1]
CCCC[C@H](NC(=O)[C@H](Cc1ccc(OS(=O)(=O)O)cc1)NC(=O)OC(C)(C)C)C(=O)NCC(=O)N[C@@H](Cc1c[nH]c2ccccc12)C(=O)N[C@@H](CCCC)C(=O)N[C@@H](CC(=O)O)C(=O)N[C@@H](Cc1ccccc1)C(N)=O (Boc-[sY][Nle]GW[Nle]DF-NH2)	0.05 nM	–	–
CCCC[C@@H](NC(=O)CC(=O)N[C@H](Cc1c[nH]c2ccccc12)C(=O)N[C@@H](CCCC)C(=O)N[C@H](CC(=O)O)C(=O)N[C@@H](Cc1ccccc1)C(N)=O)NC(=O)[C@H](Cc1ccc(OS(=O)(=O)O)cc1)NC(=O)C(CC(=O)O)NC(=O)OC(C)(C)C (some centres not stated)	6 nM	500 nM	2 nM
CCCC[C@H](NC(=O)[C@H](Cc1ccc(OS(=O)(=O)O)cc1)NC(=O)OC(C)(C)C)C(=O)NCNC(=O)[C@H](Cc1c[nH]c2ccccc12)NC(=O)[C@H](CCCC)NC(=O)[C@H](CC(=O)O)NC(=O)[C@@H](Cc1ccccc1)C(N)=O	30 nM	20 nM	1000 nM
CCCC[C@H](NC(=O)[C@H](Cc1ccc(OS(=O)(=O)O)cc1)NC(=O)C(CC(=O)O)NC(=O)OC(C)(C)C)C(=O)NCC(=O)N[C@H](Cc1c[nH]c2ccccc12)C(=O)N[C@@H](CCCC)C(=O)N[C@H](CC(=O)O)NC(=O)[C@@H](Cc1ccccc1)C(N)=O (some centres not stated)	0.7 nM	100 nM	10 nM

More lines, in order of falling EC50 (Rattus norvegicus), values ahead:

EC50 (Rattus norvegicus)	IC50 (Cholecystokinin receptor)	IC50 [1]	Structure (SMILES)
1700 nM	4000 nM	100 nM	CCCC[C@H](NC(=O)[C@H](Cc1ccc(OS(=O)(=O)O)cc1)NC(=O)OC(C)(C)C)C(=O)NCC(=O)N[C@H](Cc1c[nH]c2ccccc12)C(=O)N[C@@H](CCCC)C(=O)N[C@@H](CC(=O)O)C(=O)N[C@@H](Cc1ccccc1)NC=O
130 nM	100 nM	40 nM	CCCC[C@H](NC(=O)[C@H](Cc1ccc(OS(=O)(=O)O)cc1)NC(=O)C(CC(=O)O)NC(=O)OC(C)(C)C)C(=O)NCC(=O)N[C@H](Cc1c[nH]c2ccccc12)C(=O)N[C@@H](CCCC)C(=O)N[C@H](CC(=O)O)NC(=O)CCc1ccccc1 (some centres not stated)
30 nM	500 nM	30 nM	CCCC[C@H](NC(=O)[C@H](Cc1ccc(OS(=O)(=O)O)cc1)NC(=O)OC(C)(C)C)C(=O)NCC(=O)N[C@@H](Cc1c[nH]c2ccccc12)C(=O)N[C@@H](CCCC)C(=O)N[C@@H](CC(=O)O)C(=O)N[C@@H](Cc1ccccc1)NC=O
17 nM	40 nM	100 nM	CCCC[C@H](NC(=O)[C@H](Cc1ccc(OS(=O)(=O)O)cc1)NC(=O)OC(C)(C)C)C(=O)NCNC(=O)[C@H](Cc1c[nH]c2ccccc12)NC(=O)[C@H](CCCC)NC(=O)[C@H](CC(=O)O)NC(=O)CCc1ccccc1
